Results from paper PMC10859541 (Journal of Pharmaceutical Analysis, 2023).
Where two headings read alike, the source gives them in different places.

Key:
Assay in all cases: biolayer interferometry
Assay type in all cases: binding
[1] = target: T1, PX domain containing serine/threonine kinase-like (PXK) (Homo sapiens, UniProt Q7Z7A4)
T1 sequence (Q7Z7A4 1-578): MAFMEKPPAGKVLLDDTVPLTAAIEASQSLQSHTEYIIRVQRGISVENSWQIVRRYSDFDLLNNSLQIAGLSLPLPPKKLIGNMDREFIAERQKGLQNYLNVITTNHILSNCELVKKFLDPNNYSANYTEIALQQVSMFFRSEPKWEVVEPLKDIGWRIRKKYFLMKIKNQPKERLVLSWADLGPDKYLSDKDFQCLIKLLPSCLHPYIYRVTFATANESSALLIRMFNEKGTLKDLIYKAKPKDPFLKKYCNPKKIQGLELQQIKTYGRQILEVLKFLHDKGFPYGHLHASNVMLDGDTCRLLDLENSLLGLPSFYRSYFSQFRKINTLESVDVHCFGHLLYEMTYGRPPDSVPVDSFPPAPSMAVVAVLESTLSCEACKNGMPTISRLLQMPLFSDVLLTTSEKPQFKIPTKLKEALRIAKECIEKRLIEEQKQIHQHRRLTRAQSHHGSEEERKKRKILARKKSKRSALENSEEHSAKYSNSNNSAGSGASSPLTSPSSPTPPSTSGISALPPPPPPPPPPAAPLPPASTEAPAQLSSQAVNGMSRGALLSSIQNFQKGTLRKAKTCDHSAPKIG

metadherin (MTDH) [2] = target: T2, metadherin (MTDH) (Homo sapiens, UniProt Q86UE4)
T2 sequence (Q86UE4 1-582): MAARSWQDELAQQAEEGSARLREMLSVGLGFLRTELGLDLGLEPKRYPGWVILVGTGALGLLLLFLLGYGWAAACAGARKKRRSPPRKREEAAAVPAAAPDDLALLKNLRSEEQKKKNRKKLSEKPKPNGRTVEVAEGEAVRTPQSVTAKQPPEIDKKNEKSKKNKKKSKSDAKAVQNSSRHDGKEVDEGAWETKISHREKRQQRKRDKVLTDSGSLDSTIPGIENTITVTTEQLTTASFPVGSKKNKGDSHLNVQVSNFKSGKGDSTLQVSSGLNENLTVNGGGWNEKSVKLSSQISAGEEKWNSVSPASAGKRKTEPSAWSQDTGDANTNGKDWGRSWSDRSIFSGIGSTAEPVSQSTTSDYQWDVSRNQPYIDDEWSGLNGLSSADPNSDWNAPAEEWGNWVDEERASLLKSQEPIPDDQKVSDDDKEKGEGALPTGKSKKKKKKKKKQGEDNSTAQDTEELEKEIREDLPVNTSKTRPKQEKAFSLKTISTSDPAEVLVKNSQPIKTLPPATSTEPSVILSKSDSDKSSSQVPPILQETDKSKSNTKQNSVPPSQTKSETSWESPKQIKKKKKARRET

metadherin (MTDH) [3] = target: T2, metadherin (MTDH); remark: listed apart in the source
[4] = target: T1, PX domain containing serine/threonine kinase-like (PXK); remark: listed apart in the source

| Kd [4] [µM] | Compound | Kd [1] [µM] | Kd (metadherin (MTDH) [2]) [µM] | Kd (metadherin (MTDH) [3]) [µM] |
| --- | --- | --- | --- | --- |
| – | O=C(O[C@@H]1Cc2c(O)cc(O)cc2O[C@@H]1c1cc(O)c(O)c(O)c1)c1cc(O)c(O)c(O)c1 [EGCG] | 2420 | 0.27 | – |
| 1700 | CC(=O)Oc1cc(OC(C)=O)c2c(c1)O[C@H](c1cc(OC(C)=O)c(OC(C)=O)c(OC(C)=O)c1)[C@H](OC(=O)c1cc(OC(C)=O)c(OC(C)=O)c(OC(C)=O)c1)C2 [ProEGCG] | – | – | 517 |
